Assay results taken from patent US20220249347A1, “Composition and Method Containing Pea and Quinoa Natural Peptides And Niacinamide to Enhance Skin Glow, Radiance And Even Skin Tone” (TRI-K Industries, Inc., priority 2021, published 2022).

System: RHE-MEL 3D in vitro Caucasian skin model
Assay: Skin pigmentation (ITA°) on melanized reconstructed human epidermis 3D model RHE-MEL
Format: cell-based
Conditions: 14 days study, treated daily for 10 days; Skin Care Composition at 1%, niacinamide at same use level; versus untreated
Method: The protocol for this study including the following. A melanized reconstructed human epidermis 3D Model (RHE-MEL) (in vitro Caucasian skin model) was used. The study duration was for 14 days. The RHE-MEL 3D in vitro skin tissues were allowed to grow in the first 4 days. The 3D skin tissues were treated every day with the materials for 10 days. The following samples were used: Untreated sample, Benchmark Niacinamide (at same use level as in Skin Care Composition), and Skin Care Composition used at 1%. Concentrations of materials were predetermined based on screening MTT assay. A C-Cube Dermoscope® (a high quality magnifying lens and a powerful lighting system used to evaluate pigmented skin lesions, and can diagnose melanoma), was used coupled with C-Cube clinical software for image analysis. Skin pigmentation was analyzed via high resolution pictures obtained from the C-Cube Dermoscope® coupled with an image analysis software. ITA° parameter was measured as degree of pigmentation of the skin directly on in vitro 3D RHE-MEL skin model. Statistical analysis was done using the Student T-test with a confidence level of (p<0.05).
In this 3D RHE-MEL in vitro Caucasian model skin measured was the intensity of the skin pigmentation degree by ITA° parameter (individual typological angle). […]

NC(=O)c1cccnc1 [Niacinamide]
ITA° (individual typology angle), degree of skin pigmentation: increased the ITA°
